Test results taken from patent publication US20050208528A1, “Enhancement of the stability of oligonucleotides comprising phosphorothioate linkages by addition of water-soluble antioxidants” (ISIS Pharmaceuticals, Inc., priority 2001, published 2005).
Counter-ions that a name gives are not always drawn. Like-named read-outs stand apart in the source and are kept apart here. In the oligonucleotide strings, read from the 5' end, every base follows the letter of its sugar. An asterisk marks phosphorothioate; unmarked linkages are phosphodiester. Other units and linkages are bracketed, terminal groups are in braces. A string of capitals states the bases alone. d = 2'-deoxy (DNA)

Experiments:
ISIS 2302 [1] = assay: Desulfurization in bi-phasic cream formulation with water-soluble and oil-soluble antioxidants, 40° C. for 6 days; format: physicochemical; settings: for Full PS content (%): cream, 0.03% ISIS 2302, 40° C. 6 days, no additive 84.7
Procedure: The cream was heated at 40° C. for 6 days and the oligonucleotide was isolated by ethanol precipitation and analyzed for full PS content by SAX chromatography.

ISIS 2302 [2] = assay: Long-term protection of creams by antioxidants, 40° C. for 1 month; format: physicochemical; parameters: full PS-content: unit: %; settings: for full PS-content: cream, 0.03% ISIS 2302, 40° C. 1 month, LC/MS or SAX, no antioxidants 45.1, no excipients 91.3; for Protection against desulfurization (in words): bi-phasic cream formulation
Procedure: (§1) A cream formulation was prepared containing 5.0 g BRIJ 58 (polyoxyethylene[20]cetyl ether), 0.03% ISIS 2302 and different concentrations of phenolic antioxidants.

[3] = system: phosphorothioate oligonucleotide (ISIS-2302); assay: Desulfurization of phosphorothioate oligonucleotide in mono-phasic system with oil-soluble antioxidants (SAX chromatography); format: physicochemical; settings: for Full PS content (area-% SAX): 0.5 g PEG-40-monostearate, 1.5 ml phosphate buffer pH 7.0, 1.5 mg ISIS-2302, 65° C. 20 hours, no antioxidants 51.0
Procedure: Polyethyleneglycol-40-monostearate (0.5 g), a water-soluble excipient which forms peroxides in the absence of antioxidants, was heated at 65° C. for 20 hours with 1.5 ml phosphate buffer, pH 7.0 and 1.5 mg phosphorothioate oligonucleotide (ISIS-2302) in the absence or presence of various oil-soluble antioxidants. Oligonucleotides were isolated by ethanol precipitation and phosphorothioate content was determined by strong anion exchange (SAX) chromatography.

ISIS 2302 [4] = assay: Desulfurization in bi-phasic cream formulation with oil-soluble antioxidants, 40° C. for 2 days; format: physicochemical; settings: for Full PS content (%): 0.03% ISIS 2302, 0 mg gives 83.9; for Full PS content (%) / Protection of phosphorothioate oligonucleotides against desulfurization (in words): 40° C. 2 days; for Protection of phosphorothioate oligonucleotides against desulfurization (in words): biphasic cream
Procedure: as §1

ICAM-1 [5] = settings: C8161 human melanoma cells; cited from earlier work
C8161 cells = settings: experimental metastasis assay, cited from earlier work
HLA-A and HLA-B = settings: versus HLA-A and HLA-B; cited from earlier work
ICAM-1 [6] = settings: cited from earlier work
[7] = Crohn's disease, rheumatoid arthritis, psoriasis, ulcerative colitis, kidney transplant rejection models; cited from earlier work
[8] = cited from earlier work
[9] = 5 mg antioxidant in 100 g cream
[10] = 10 mg antioxidant in 100 g cream
[11] = 25 mg antioxidant in 100 g cream
[12] = 50 mg antioxidant in 100 g cream
[13] = 75 mg antioxidant in 100 g cream
[14] = 100 mg antioxidant in 100 g cream
[15] = cream with 0.03% ISIS 2302, before heating

O=S(=O)([O-])c1ccc2[nH]c(S)nc2c1.[Na+] [2-MBSA]
Full PS content (%) (ISIS 2302 [1]; additive 4.8 mg): 95.5%
full PS-content (ISIS 2302 [2]; additive 0.01%): 78.7
full PS-content (ISIS 2302 [2]; additive 0.05%): 95.2
full PS-content (ISIS 2302 [2]; additive 0.2%): 96.1
full PS-content (ISIS 2302 [2]; additive 0.8%): 95.7
Protection against desulfurization (in words) (ISIS 2302 [2]): inhibited desulfurization

O=S(=O)(O)CCS [2-MESA, Na salt, 2-mercaptoethanesulfonic acid]
full PS-content (ISIS 2302 [2]; additive 0.01%): 61.2
full PS-content (ISIS 2302 [2]; additive 0.05%): 71.6
full PS-content (ISIS 2302 [2]; additive 0.2%): 72.5
full PS-content (ISIS 2302 [2]; additive 0.8%): 86.7

Cc1cccc(C(C)(C)C)c1O [2-t-butyl-6-methylphenol]
Full PS content (%) (ISIS 2302 [1]; additive 11.0 mg): 79.0%
Full PS content (area-% SAX) ([3]; 5 mg additive): 93.4 area-% SAX

Cc1cc(C(C)(C)C)c(O)c(C(C)(C)C)c1 [BHT, butylated hydroxytoluene]
Full PS content (%) (ISIS 2302 [1]; additive 5.2 mg): 77.3%
Full PS content (%) (ISIS 2302 [4]; [9]): 85.8%
Full PS content (%) (ISIS 2302 [4]; [10]): 82.1%
Full PS content (%) (ISIS 2302 [4]; [11]): 80.1%
Full PS content (%) (ISIS 2302 [4]; [12]): 85.4%
Full PS content (%) (ISIS 2302 [4]; [13]): 84.4%
Full PS content (%) (ISIS 2302 [4]; [14]): 85.2%
Protection of phosphorothioate oligonucleotides against desulfurization (in words) (ISIS 2302 [4]): do not provide protection

N[C@@H](CCC(=O)N[C@@H](CS)C(=O)NCC(=O)O)C(=O)O [Glutathione]
full PS-content (ISIS 2302 [2]; additive 0.01%): 9.6
full PS-content (ISIS 2302 [2]; additive 0.05%): 49.4
full PS-content (ISIS 2302 [2]; additive 0.2%): 50.9
full PS-content (ISIS 2302 [2]; additive 0.8%): 80.1
Protection against desulfurization (in words) (ISIS 2302 [2]): inhibited desulfurization

N[C@@H](CS)C(=O)O [L-cysteine]
Full PS content (%) (ISIS 2302 [1]; additive 0.05 mg): 89.6%
Full PS content (%) (ISIS 2302 [1]; additive 0.2 mg): 91.8%
Full PS content (%) (ISIS 2302 [1]; additive 0.4 mg): 93.6%
Full PS content (%) (ISIS 2302 [1]; additive 1.0 mg): 93.7%
Full PS content (%) (ISIS 2302 [1]; additive 6.1 mg): 93.0%
Full PS content (%) (ISIS 2302 [1]; additive 52.2 mg): 94.5%
full PS-content (ISIS 2302 [2]; additive 0.01%): 28.4
full PS-content (ISIS 2302 [2]; additive 0.05%): 30.8
full PS-content (ISIS 2302 [2]; additive 0.2%): 67.3
full PS-content (ISIS 2302 [2]; additive 0.8%): 81.9
Protection against desulfurization (in words) (ISIS 2302 [2]): inhibited desulfurization

O=C(O)CCCCC1CCSS1 (stereo not drawn) [α-lipoic acid]
full PS-content (ISIS 2302 [2]; additive 0.02%): 80.2
full PS-content (ISIS 2302 [2]; additive 0.1%): 84.3
full PS-content (ISIS 2302 [2]; additive 0.45%): 84.7
full PS-content (ISIS 2302 [2]; additive 1.6%): 87.6
Protection against desulfurization (in words) (ISIS 2302 [2]): inhibited desulfurization

ISIS 1939: 2′-deoxyoligonucleotide, phosphorothioate backbone, 5′-CCC-CCA-CCA-CTT-CCC-CTC-TC-3′ (SEQ ID NO:2), targeted to 3′-UTR of human ICAM-1 gene (antisense dC*dC*dC*dC*dC*dA*dC*dC*dA*dC*dT*dT*dC*dC*dC*dC*dT*dC*dT*dC)
ICAM-1 expression (mRNA levels, northern blot) (ICAM-1 [5]): markedly reduced ICAM-1 expression

ISIS 2302: 2′-deoxyoligonucleotide, phosphorothioate backbone, 5′-GCC-CAA-GCT-GGC-ATC-CGT-CA-3′ (SEQ ID NO:1), targeted to 3′-UTR of human ICAM-1 gene (antisense GCCCAAGCTGGCATCCGTCA; DNA, all phosphorothioate, methylation of C not given here)
Enhanced metastatic ability of C8161 cells resulting from TNF-α treatment (C8161 cells; TNF-α treated cells): eliminated the enhanced metastatic ability
Metastatic potential of C8161 cells (C8161 cells): decreased the metastatic potential
Specificity for target ICAM-1 over other potential nucleic acid targets (HLA-A and HLA-B): demonstrated specificity for its target ICAM-1
ICAM-1 expression (ICAM-1 [6]; human epidermal carcinoma cells (A431)): inhibit ICAM-1 expression
ICAM-1 expression (ICAM-1 [6]; human keratinocytes): inhibit ICAM-1 expression
ICAM-1 expression (ICAM-1 [6]; human lung carcinoma cells (A549)): inhibit ICAM-1 expression
ICAM-1 expression (ICAM-1 [6]; human umbilical vein cells): inhibit ICAM-1 expression
PS content of the cream prior to heating (ISIS 2302 [1]; [15]): about 95%
phosphorothioate content of the cream prior to heating (ISIS 2302 [4]; [15]): 95%
Anti-inflammatory effects in animal testing [7]: strong anti-inflammatory effects
ICAM-1 expression (mRNA levels, northern blot) (ICAM-1 [5]): markedly reduced ICAM-1 expression
Activity against Crohn's disease ([8]; humans): activity against Crohn's disease
Safety in humans ([8]; in vivo): good safety
Steroid-sparing effect ([8]; treated human subjects, five months post-treatment weaned from steroids and in remission): statistically significant steroid-sparing effect

Vitamin E
Full PS content (%) (ISIS 2302 [1]; additive 7.4 mg): 83.7%
Protection from desulfurization (in words) (ISIS 2302 [1]; bi-phasic cream formulation): ineffective
Full PS content (%) (ISIS 2302 [4]; [9]): 84.0%
Full PS content (%) (ISIS 2302 [4]; [10]): 81.9%
Full PS content (%) (ISIS 2302 [4]; [11]): 80.6%
Full PS content (%) (ISIS 2302 [4]; [12]): 78.6%
Full PS content (%) (ISIS 2302 [4]; [13]): 78.7%
Full PS content (%) (ISIS 2302 [4]; [14]): 76.3%
Protection of phosphorothioate oligonucleotides against desulfurization (in words) (ISIS 2302 [4]): do not provide protection
Full PS content (area-% SAX) ([3]; 15 mg additive): 89.7 area-% SAX
Protection of phosphorothioate oligonucleotide against desulfurization (in words) ([3]; mono-phasic system): inhibit desulfurization

Vitamin E-TPGS
Full PS content (%) (ISIS 2302 [1]; additive 7.5 mg): 84.8%
